Experimental data published in patent publication US12343368B2, “Cleome droserifolia extract and therapeutic or cosmetic use thereof” (ANPJ HEALTHCARE, priority 2019, dated 2025).

Tests used:
NCTC clone 929 cell line = test: Antioxidant activity, cell viability (MTT) after hydrogen peroxide stress; assay type: cell-based; details: 0.56 mg/ml; for Absorbance Mean: 570 nm
[1] = as above; assay type: cell-based; details: mouse, NCTC clone 929 cells, Without H2O2, read-out: Cellular viability (%)
citrated ovine plasma = test: Coagulant activity in vitro (coagulation time, coagulometer); assay type: biochemical
Procedure: The material used is described as follows: • The 6th international standard for unfractionated heparin (WHO 07; 328) • Activated cephaloplastin reagent Dade® Actin®—Siemens • Calcium chloride—Siemens®. • Thermo Scientific coagulometer • Citrated ovine plasma 8.7%. • Aqueous extract of lyophilized Cleome droserifolia The operating protocol is described as follows: The lyophilized extract was dissolved in ultrapure water to obtain a stock concentration of 2 mg/ml. Dilution was carried out to obtain a concentration of 0.6 mg/ml. In a first experiment, 100 μl of each of the following solutions was added to the cuvettes of the coagulometer (n=2): • Lyophilisate solution concentrated at 0.6 mg/ml, • Heparin solution at a concentration of 0.6 IU/ml • Physiological solution for the control group, • Then, 100 μl of sheep plasma was added to all the wells. • After 2 minutes, 100 μl of reactant activated with Cephalosplatin Cade® Actin was added. • After 5 minutes of incubation, 100 μl of calcium chloride solution were added and the coagulation times were recorded.

Row | Compound | viability at 25 µM (NCTC clone 929 cell line; NCTC clone 929, With H2O2 (25 μM), read-out: Cellular viability (%)) | Absorbance Mean (NCTC clone 929 cell line; With H2O2 (25 μM)) | Absorbance Mean (NCTC clone 929 cell line; Without H2O2) | viability at 24 h, 0.56 mg/ml [1] | coagulation time (citrated ovine plasma; heparin) | coagulation time (citrated ovine plasma; heparin 0.6 IU/ml)
1 | O=C1O[C@H]([C@@H](O)CO)C(O)=C1O [ascorbic acid] | 74.4% | 0.3564 | 0.3719 | 77.6% | – | –
2 | Heparin | – | – | – | – | 54.3 s | 54.3 s
